Results reported in publication PMC12514245, “Impaired migration and lung invasion of human melanoma by a novel small molecule targeting the transmembrane domain of death receptor p75^NTR” (EMBO Molecular Medicine, 2025).
Several values for one entry are separate records, joined by “and”; a condition that tells them apart may be missing. Equal values may be shown once.

Tests used:
[1] = tested on: A875-NT melanoma xenograft; assay: Melanoma lung invasion assay, A875-NT, delayed treatment 3 weeks after cell injection; assay type: in vivo, SCID mice; conditions: A875-NT, group average
Procedure: (§1) Finally, we investigated whether delayed administration of Np75-4A22 was able to affect engraftment and growth of metastatic tumors in the lung. To this end, drug treatment (orally at 200 mg/kg) was initiated 3 weeks after intravenous injection of A875-NT or A875-shp75 cells in female SCID mice and continued for additionally 4 weekly cycles (5 days on/2 days off) as above (Fig. 8E). Metastatic spread to the lungs was monitored weekly by bioluminescent imaging of luciferase-expressing melanoma cells. […] We conclude that Np75-4A22 can be efficacious at reducing the spread and seeding of melanoma cells in the lung when administered either before or after cell implantation.
(§2) Eight-week-old female SCID mice (Charles River Laboratories, Shrewsbury, MA, USA) were housed in groups of three to five and maintained on a 12-h light/dark schedule with a temperature of 22 °C ± 1 °C and a relative humidity of 50% ± 5%. Food and water were available ad libitum. This research study was reviewed and approved by the University of Calgary Animal Care Committee (AC22-0054) and McGill University (AUP-JGH-8269) and adheres to established ethical principles and guidelines. A875-GFPLuc (A875-NT) or A875-GFPLuc shp75 (A875-shp75) cells harvested using Puck’s EDTA were resuspended in PBS and injected intravenously into SCID mice (5 × 10^5 cells/200 μl per mouse). Np75-4A22 was dissolved in 0.5% sodium carboxymethyl cellulose (NaCMC) in reverse osmosis H2O and administered by oral gavage at 200 mg/kg/day starting one day prior to intravenous (tail vein) injection of tumor cells and continued for 3 1-week cycles (cycle: 5 days on drug, 2 days off drug). Tumor spread to the lung was monitored weekly by luciferase activity using the Xenogen IVIS-200 Optical in vivo luciferase imaging system as described previously (Lun et al, [2016]) and by immunohistochemistry (IHC) at designated time points. IHC was performed after formalin fixation, paraffin embedding and sectioning of the lungs, using a human-specific mouse polyclonal nucleolin antibody (1:500 dilution) and detected using Dako liquid DAB+ Substrate Chromogen System (Dako: k3468, California, USA) followed by a hematoxylin counterstain (Sigma, Oakville, ON, Canada). Sections were mounted and imaged on an Olympus phase contrast microscope (Olympus Life Science, Tokyo, Japan). For immunofluorescence, sections were stained with anti-human nucleolin and anti-human p75NTR antibodies (1:1000 dilution), subsequently detected with 1:200 dilutions of Alexa Fluor™ 488 Goat anti-Mouse IgG (H + L) Highly Cross-Adsorbed Secondary Antibody and Alexa Fluor™ 568 Goat anti-Rabbit IgG (H + L) Cross-Adsorbed Secondary Antibody. Sections were further stained with DAPI to detect all nuclei. Between each treatment, TBS Automation Wash Buffer (Biocare Medical TWB945M) was employed. Images were taken with LSM800 confocal microscope and ZEN system.

[2] = tested on: A875-shp75 melanoma xenograft; assay: Melanoma lung invasion assay, A875-shp75, delayed treatment 3 weeks after cell injection; assay type: in vivo, SCID mice; conditions: group average
Procedure: as §1, §2

AS19 E. coli = assay: Bacterial toxicity (OD630) in the AraTM assay; assay type: cell-based; conditions: compared with Div17E5
A875 NT cells = assay: Wound healing cell motility assay, A875 NT; assay type: cell-based, human; conditions: for Wound area (Fold), Mean / Wound area (Fold), individual replicates: 10uM
Procedure: For wound healing assay, cells were grown until confluency and subjected to a wound across the cell mono-layer. Cells were then incubated with serum-free media either with DMSO or a small molecule (with or without 5 µM Q_VD_poH) and imaged at specific time-points. Cell migration is reflected as fold change in wound area over time.

p75^NTR TMD = target: T1, p75^NTR TMD (Homo sapiens, UniProt P08138); assay: AraTM assay, wild-type p75NTR TMD (GFP/OD630); assay type: cell-based; conditions: structure-activity comparison
T1 sequence (P08138 250-275 limits assumed): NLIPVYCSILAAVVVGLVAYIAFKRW

Cc1cccc(-c2cncc(Nc3ccc(Br)c(Cl)c3Cl)n2)c1C [4A-22]
Average Photons/second/week, wk2 ([1]; wk2): 77712.5 Photons/second | Average Photons/second/week, wk3 ([1]; wk3): 189000 Photons/second | Average Photons/second/week, wk4 ([1]; wk4): 170125 Photons/second | Average Photons/second/week, wk5 ([1]; wk5): 304375 Photons/second | Average Photons/second/week, wk6 ([1]; wk6): 845350 Photons/second | Average Photons/second/week, wk7 ([1]; wk7): 3166750 Photons/second | Average Photons/second/week, wk2 ([2]; wk2): 9.88E+04 Photons/second | Average Photons/second/week, wk3 ([2]; wk3): 1.46E+05 Photons/second | Average Photons/second/week, wk4 ([2]; wk4): 1.10E+05 Photons/second | Average Photons/second/week, wk5 ([2]; wk5): 2.77E+05 Photons/second | Average Photons/second/week, wk6 ([2]; wk6): 4.60E+05 Photons/second | Average Photons/second/week, wk7 ([2]; wk7): 1.10E+06 Photons/second

CN(C)c1cccc(-c2cncc(Nc3ccc(Br)c(Cl)c3Cl)n2)c1 [MS_63]
bacterial toxicity, as assessed by OD630 (AS19 E. coli): somewhat lower bacterial toxicity | wound healing assay, comparison of Div17E5, MS_18 and MS_63 (A875 NT cells; 10 µM): lower potency | Wound area (Fold), Mean (A875 NT cells; 0 hours): 1 Fold | Wound area (Fold), individual replicates (A875 NT cells; 0 hours): 1.000 Fold | Wound area (Fold), Mean (A875 NT cells; 3 hours): 0.912 Fold | Wound area (Fold), individual replicates (A875 NT cells; 3 hours): 0.916 Fold and 0.908 Fold | Wound area (Fold), Mean (A875 NT cells; 6 hours): 0.874 Fold | Wound area (Fold), individual replicates (A875 NT cells; 6 hours): 0.869 Fold and 0.879 Fold | Wound area (Fold), Mean (A875 NT cells; 9 hours): 0.827 Fold | Wound area (Fold), individual replicates (A875 NT cells; 9 hours): 0.786 Fold and 0.869 Fold | Wound area (Fold), Mean (A875 NT cells; 12 hours): 0.792 Fold | Wound area (Fold), individual replicates (A875 NT cells; 12 hours): 0.755 Fold and 0.828 Fold | Wound area (Fold), Mean (A875 NT cells; 15 hours): 0.762 Fold | Wound area (Fold), individual replicates (A875 NT cells; 15 hours): 0.728 Fold and 0.796 Fold | Wound area (Fold), Mean (A875 NT cells; 18 hours): 0.73 Fold | Wound area (Fold), individual replicates (A875 NT cells; 18 hours): 0.704 Fold and 0.756 Fold | Wound area (Fold), Mean (A875 NT cells; 21 hours): 0.71 Fold | Wound area (Fold), individual replicates (A875 NT cells; 21 hours): 0.683 Fold and 0.737 Fold | Wound area (Fold), Mean (A875 NT cells; 24 hours): 0.697 Fold | Wound area (Fold), individual replicates (A875 NT cells; 24 hours): 0.666 Fold and 0.729 Fold

COc1ccccc1-c1cncc(Nc2ccc([N+](=O)[O-])cc2)n1 [Np75-3A01]
activity in the AraTM assay (p75^NTR TMD): MS_18 more potent than Np75-3A01, -3A02

COc1cccc(-c2cncc(Nc3ccc([N+](=O)[O-])cc3)n2)c1 [Np75-3A02]
activity in the AraTM assay (p75^NTR TMD): MS_18 more potent than Np75-3A01, -3A02

Cc1ccccc1-c1cncc(Nc2ccc([N+](=O)[O-])cc2)n1 [Np75-3A19]
activity in the AraTM assay (p75^NTR TMD): Np75-3A21 better than -3A19 and -3A20
